These are literature values, as cited in patent publication US20050137163A1, “Modified hyaluronic acid for use in musculoskeletal tissue repair” (priority 2003, published 2005).

The conditions of the series: investigated previously as an antimicrobial agent.

Regarding benzalconium chloride [BzCl], the “concentration shown to be safe” value was “up to 0.1 % weight”.
